Patent US5128398A, “Phenolic compound and its use as stabilizer for butadiene polymer” (Sumitomo Chemical Company, Limited, priority 1987, dated 1992)

Tests used:
[1] = Solubility in hydrocarbon solvents at 20° C.; format: physicochemical
Excerpt: Solubility in hydrocarbon solvents was examined for the compounds II-1 and II-2 of the present invention and for the compounds AO-1 and AO-2 which are structurally similar to the compounds of the present invention. The hydrocarbon solvents used were n-hexane and cyclohexane. (g/100 g solvent)

[2] = U.S. Pat. No. 4,525,514; cited from earlier work

| SMILES | Solubility in Cyclohexane [1] [g/100 g solvent] | Solubility in n-Hexane [1] [g/100 g solvent] | effect as a stabilizer for butadiene polymers (in words) [2] |
| --- | --- | --- | --- |
| C=CC(=O)Oc1c(Cc2cc(C)cc(C(C)(C)C)c2O)cc(C)cc1C(C)(C)C [AO-1, 2-t-Butyl-6-(3-t-butyl-2-hydroxy-5-methylbenzyl)-4-methylphenyl acrylate] | 4.0 | 1.5 | effective as a stabilizer for butadiene polymers |
| C=CC(=O)Oc1c(C(C)c2cc(C(C)(C)C)cc(C(C)(C)C)c2O)cc(C(C)(C)C)cc1C(C)(C)C (stereo not drawn) [AO-2, 2,4-Di-t-butyl-6-[1-(3,5-di-t-butyl-2-hydroxyphenyl)ethyl]phenyl acrylate] | 2.4 | 1.1 |  |
| C=CC(=O)Oc1c(C(C)c2cc(C(C)(C)CC)cc(C(C)(C)CC)c2O)cc(C(C)(C)CC)cc1C(C)(C)CC (stereo not drawn) [II-1, 2,4-di-t-amyl-6-[1-(3,5-di-t-amyl-2-hydroxyphenyl)ethyl]phenyl acrylate] | 89 | 55 |  |
| C=C(C)C(=O)Oc1c(C(C)c2cc(C(C)(C)CC)cc(C(C)(C)CC)c2O)cc(C(C)(C)CC)cc1C(C)(C)CC (stereo not drawn) [II-2, 2,4-di-t-amyl-6-[1--(3,5-di-t-amyl-2-hydroxyphenyl)ethyl]phenyl methacrylate] | 108 | 65 |  |
